From patent publication US20180125992A1, “DRUG DELIVERY CONJUGATES OF TERTIARY AMINE […]” (ENDOCYTE, INC., priority 2016, published 2018) come the findings set out here.

The test deals with KB cells. In words: In vitro FR specific activity of folate conjugates: 3H-thymidine incorporation in KB cells. The test is classed as cell-based. The note with it: 2 h pulse at 37° C., chase up to 72 h, without excess folate. As to the method: KB cells were seeded in individual 24-well Falcon plates and allowed to form nearly confluent monolayers overnight in FFRPMI/HIFCS. Thirty minutes prior to the addition of folate-conjugate, spent medium was aspirated from all wells and replaced with either fresh FFRPMI or FFRPMI supplemented with 100 μM FA. Each well then received 1 mL of medium containing increasing concentrations of folate-conjugate (3 wells per sample). Cells were pulsed for 2 h at 37° C., rinsed 4 times with 0.5 mL of medium and then chased in 1 mL of fresh medium up to 72 h. Spent medium was aspirated from all wells and replaced with fresh medium containing 5 μCi/mL of ^3H-thymidine. Following a 2 h incubation at 37° C., cells were washed 3 times with 0.5 mL of PBS and then treated with 0.5 mL of ice-cold 5% trichloroacetic acid per well. After 15 min, the trichloroacetic acid was aspirated and the cells solubilized by the addition of 0.5 mL of 0.25 N sodium hydroxide for 15 min at room temperature. Four hundred and fifty μL of each solubilized sample were transferred to scintillation vials containing 3 mL of Ecolume scintillation cocktail and counted in a liquid scintillation counter. Final results were expressed as the percentage of ^3H-thymidine incorporation relative to untreated controls.

Each structure is given as a SMILES string.

Broadly, the IC50 is the midpoint of a concentration-inhibition curve. A higher IC50 goes with weaker potency.

In turn, `CC/C=C/CN(C(=O)[C@@H](NC(=O)[C@H]1CCCC[N+]1(C)Cc1ccc(SSC[C@H](NC(=O)[C@H](CC(=O)O)NC(=O)[C@H](CC(=O)O)NC(=O)[C@H](CCCNC(=N)N)NC(=O)[C@H](CC(=O)O)NC(=O)CC[C@H](NC(=O)c2ccc(NCc3cnc4nc(N)[nH]c(=O)c4n3)cc2)C(=O)O)C(=O)O)cc1)C(C)CC)[C@H](C[C@@H](OCC)c1nc(C(=O)N[C@@H](Cc2ccc(O)cc2)C[C@H](C)C(=O)O)cs1)C(C)C` (some centres unmarked) [Compound 2] had a concentration for half-maximal inhibition (IC50) of 7 nM. This lies in the single-digit nanomolar range.
For `CCCC(=O)OCN(C(=O)[C@@H](NC(=O)[C@H]1CCCC[N+]1(C)CCSSC[C@H](NC(=O)[C@H](CC(=O)O)NC(=O)[C@H](CC(=O)O)NC(=O)[C@H](CCCNC(=N)N)NC(=O)[C@H](CC(=O)O)NC(=O)CC[C@H](NC(=O)c1ccc(NCc2cnc3nc(N)[nH]c(=O)c3n2)cc1)C(=O)O)C(=O)O)C(C)CC)[C@H](C[C@@H](OC(C)=O)c1nc(C(=O)N[C@@H](Cc2ccccc2)C[C@H](C)C(=O)OC)cs1)C(C)C` (some centres unmarked) [Compound 1], inhibition was half-maximal at 5 nM (IC50).
